Counter-ions that a name gives are not always drawn.
How the values were obtained:
Alternaria solani = Alternaria solani (early blight of tomato/potato) in vitro test, radial growth on Potato Dextrose Agar; assay type: cell-based; details: 168 h, compared to the untreated check, radial growth after seven days, read-out: control
Phakopsora pachyrhizi = Phakopsora pachyrhizi test in soybean (greenhouse, preventive activity, disease severity rating); assay type: in vivo; details: preventive spray on soybean, compared to the untreated check
Summary of the method: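 Greenhouse-raised young soybean plants sprayed with compound at stated rates, then inoculated one day later with 2.1×10^6 P. pachyrhizi spores and held at 25° C, 90% RH. Disease severity (0-100%) rated visually 3, 7, 10 and 15 days after application; % control calculated versus untreated plants.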

Pyricularia oryzae = experiment: microbe, parasite or virus in culture; assay type: cell-based; details: 168 h, read-out: control
Rhizoctonia solani = Rhizoctonia solani (rice sheath blight/potato black scurf) in vitro test, radial growth on Potato Dextrose Agar; assay type: cell-based; details: 168 h, compared to the untreated check, radial growth after seven days, read-out: control
Colletotrichum capsici = Colletotrichum capsici (anthracnose) in vitro test, radial growth on Potato Dextrose Agar; details: Colletotrichum truncatum, 168 h, read-out: control
Protocol: Compounds were dissolved in 0.3% DMSO and then added to Potato Dextrose Agar medium just prior to dispensing it into petri dishes. 5 mL medium with compound in the desired concentration was dispensed into 60 mm sterile petri-plates. After solidification, each plate was seeded with a 5 mm size mycelial disc taken form the periphery of an actively growing virulent culture plate. Plates were incubated in growth chambers at 25° C. temperature and 60% relative humidity for seven days and radial growth was measured.

Row | SMILES | inhibition of growth at 300 ppm (Alternaria solani) | pest or weed control at 500 ppm (Phakopsora pachyrhizi) | inhibition of growth at 300 ppm (Pyricularia oryzae) | inhibition of growth at 300 ppm (Rhizoctonia solani) | inhibition of growth at 300 ppm (Colletotrichum capsici)
1 | COc1cccc(C(=O)N2CC[C@H](Oc3ccc(-c4noc(C(F)(F)F)n4)cc3)C2)c1 [Compound 1, (S)-(3-methoxyphenyl)(3-(4-(5-(trifluoromethyl)-1,2,4-oxadiazol-3-yl)phenoxy)pyrrolidin-1-yl)methanone] | > 70% | > 70% | – | – | –
2 | COc1ccc(CC(=O)N2CC[C@H](Oc3ccc(-c4noc(C(F)(F)F)n4)cc3)C2)cc1OC [Compound 5, (S)-2-(3,4-dimethoxyphenyl)-1-(3-(4-(5-(trifluoromethyl)-1,2,4-oxadiazol-3-yl)phenoxy)pyrrolidin-1-yl)ethan-1-one] | – | > 70% | > 70% | – | –
3 | O=C(c1ccccc1F)N1CC[C@H](Oc2ccc(-c3noc(C(F)(F)F)n3)cc2)C1 [Compound 6, (S)-(2-fluorophenyl)(3-(4-(5-(trifluoromethyl)-1,2,4-oxadiazol-3-yl)phenoxy)pyrrolidin-1-yl)methanone] | > 70% | – | – | – | –
4 | O=C(Cc1ccccc1)N1CC[C@H](Oc2ccc(-c3noc(C(F)(F)F)n3)cc2)C1 [Compound 11, (S)-2-phenyl-1-(3-(4-(5-(trifluoromethyl)-1,2,4-oxadiazol-3-yl)phenoxy)pyrrolidin-1-yl)ethan-1-one] | – | > 70% | > 70% | – | –
5 | COc1cccc(C(=O)N2CC(Oc3ccc(-c4noc(C(F)(F)F)n4)cc3)C2)c1 [Compound 17, (3-methoxyphenyl)(3-(4-(5-(trifluoromethyl)-1,2,4-oxadiazol-3-yl)phenoxy)azetidin-1-yl)methanone] | – | > 70% | > 70% | – | –
6 | COc1cccc(CC(=O)N2CC[C@H](Oc3ccc(-c4noc(C(F)(F)F)n4)cc3)C2)c1 [Compound 24, (S)-2-(3-methoxyphenyl)-1-(3-(4-(5-(trifluoromethyl)-1,2,4-oxadiazol-3-yl)phenoxy)pyrrolidin-1-yl)ethan-1-one] | > 70% | > 70% | – | – | –
7 | O=C(c1ccccc1F)N1CC[C@H](Oc2ccc(-c3noc(C(F)(F)F)n3)cn2)C1 [Compound 45, (S)-(2-fluorophenyl)(3-((5-(5-(trifluoromethyl)-1,2,4-oxadiazol-3-yl)pyridin-2-yl)oxy)pyrrolidin-1-yl)methanone] | – | > 70% | > 70% | – | –
8 | O=C(c1ccncc1)N1CC[C@H](Oc2ccc(-c3noc(C(F)(F)F)n3)cn2)C1 [Compound 49, (S)-pyridin-4-yl(3-((5-(5-(trifluoromethyl)-1,2,4-oxadiazol-3-yl)pyridin-2-yl)oxy)pyrrolidin-1-yl)methanone] | > 70% | > 70% | > 70% | > 70% | > 70%
9 | COc1ccc(C(=O)N2CC[C@H](Oc3ccc(-c4noc(C(F)(F)F)n4)cc3)C2)cn1 [Compound 56, (S)-(6-methoxypyridin-3-yl)(3-(4-(5-(trifluoromethyl)-1,2,4-oxadiazol-3-yl)phenoxy)pyrrolidin-1-yl)methanone] | – | > 70% | > 70% | – | –
10 | O=C(c1cccnc1)N1CC[C@H](Oc2ccc(-c3noc(C(F)(F)F)n3)cc2F)C1 [Compound 58, (S)-(3-(2-fluoro-4-(5-(trifluoromethyl)-1,2,4-oxadiazol-3-yl)phenoxy)pyrrolidin-1-yl)(pyridin-3-yl)methanone] | > 70% | – | > 70% | – | –
11 | CC(C)(C)OC(=O)N1CC[C@H](Oc2ccc(-c3noc(C(F)(F)F)n3)cc2F)C1 [Compound 60, tert-butyl-(S)-3-(2-fluoro-4-(5-(trifluoromethyl)-1,2,4-oxadiazol-3-yl)phenoxy)pyrrolidine-1-carboxylate] | – | > 70% | > 70% | – | –
12 | CCS(=O)(=O)N1CC[C@H](Oc2ccc(-c3noc(C(F)(F)F)n3)cc2F)C1 [Compound 61, (S)-3-(4-((1-(ethylsulfonyl)pyrrolidin-3-yl)oxy)-3-fluorophenyl)-5-(trifluoromethyl)-1,2,4-oxadiazole] | – | > 70% | > 70% | – | –
13 | FC(F)(F)c1nc(-c2ccc(N(c3ccc(-c4noc(C(F)(F)F)n4)cc3)C3CNC3)cc2)no1 [Compound 86, N,N-bis(4-(5-(trifluoromethyl)-1,2,4-oxadiazol-3-yl)phenyl)azetidin-3-amine Hydrochloride] | > 70% | > 70% | – | – | –
14 | CN(c1ccc(-c2noc(C(F)(F)F)n2)cc1)C1CN(C(=O)c2ccccc2)C1 [Compound 87, (3-(methyl(4-(5-(trifluoromethyl)-1,2,4-oxadiazol-3-yl)phenyl)amino)azetidin-1-yl)(phenyl)methanone] | – | > 70% | – | – | > 70%
15 | CN(c1ccc(-c2noc(C(F)(F)F)n2)cc1)C1CN(C(=O)c2cccc(F)c2)C1 [Compound 96, (3-fluorophenyl)(3-(methyl(4-(5-(trifluoromethyl)-1,2,4-oxadiazol-3-yl)phenyl)amino)azetidin-1-yl)methanone] | > 70% | – | > 70% | – | > 70%
16 | Cc1ccc(C(=O)N2CC(N(C)c3ccc(-c4noc(C(F)(F)F)n4)cc3)C2)cc1 [Compound 97, (3-(methyl(4-(5-(trifluoromethyl)-1,2,4-oxadiazol-3-yl)phenyl)amino)azetidin-1-yl)(p-tolyl)methanone] | > 70% | – | > 70% | – | –
17 | COc1ccc(C(=O)N2CC(N(C)c3ccc(-c4noc(C(F)(F)F)n4)cc3)C2)cc1 [Compound 98, (4-methoxyphenyl)(3-(methyl(4-(5-(trifluoromethyl)-1,2,4-oxadiazol-3-yl)phenyl)amino)azetidin-1-yl)methanone] | > 70% | – | > 70% | – | –
18 | CN(c1ccc(-c2noc(C(F)(F)F)n2)cc1)C1CN(C(=O)Cc2ccccc2)C1 [Compound 99, 1-(3-(methyl(4-(5-(trifluoromethyl)-1,2,4-oxadiazol-3-yl)phenyl)amino)azetidin-1-yl)-2-phenylethan-1-one] | > 70% | – | > 70% | – | –
19 | O=C(c1ccccc1F)N1CCC(Oc2cccc(-c3noc(C(F)(F)F)n3)c2)C1 (stereo not drawn) [Compound 132, (2-fluorophenyl)(3-(3-(5-(trifluoromethyl)-1,2,4-oxadiazol-3-yl)phenoxy)pyrrolidin-1-yl)methanone] | > 70% | – | – | – | –
20 | O=C(c1cccc(F)c1)N1CCC(Oc2cccc(-c3noc(C(F)(F)F)n3)c2)C1 (stereo not drawn) [Compound 133, (3-fluorophenyl)(3-(3-(5-(trifluoromethyl)-1,2,4-oxadiazol-3-yl)phenoxy)pyrrolidin-1-yl)methanone] | > 70% | – | > 70% | – | –
21 | O=C(c1ccc(F)cc1)N1CCC(Oc2cccc(-c3noc(C(F)(F)F)n3)c2)C1 (stereo not drawn) [Compound 134, (4-fluorophenyl)(3-(3-(5-(trifluoromethyl)-1,2,4-oxadiazol-3-yl)phenoxy)pyrrolidin-1-yl)methanone] | > 70% | – | > 70% | – | –
22 | Cc1ccc(C(=O)N2CCC(Oc3cccc(-c4noc(C(F)(F)F)n4)c3)C2)cc1 (stereo not drawn) [Compound 135, p-tolyl(3-(3-(5-(trifluoromethyl)-1,2,4-oxadiazol-3-yl)phenoxy)pyrrolidin-1-yl)methanone] | – | – | > 70% | – | –
23 | CC(C)S(=O)(=O)N1CC[C@H](Oc2ccc(-c3noc(C(F)(F)F)n3)cc2)C1 [Compound 136, (S)-3-(4-((1-(isopropylsulfonyl)pyrrolidin-3-yl)oxy)phenyl)-5-(trifluoromethyl)-1,2,4-oxadiazole] | – | – | – | – | > 70%
24 | CN(c1ccc(-c2noc(C(F)(F)F)n2)cc1)C1CCN(C(=O)OC(C)(C)C)C1 (stereo not drawn) [Compound 167, tert-butyl 3-(methyl(4-(5-(trifluoromethyl)-1,2,4-oxadiazol-3-yl)phenyl)amino)pyrrolidine-1-carboxylate] | – | – | > 70% | – | –
25 | Cc1cccc(C(=O)N2CC[C@@H](Sc3ccc(-c4noc(C(F)(F)F)n4)cc3)C2)c1 [Compound 172, (R)-m-tolyl(3-((4-(5-(trifluoromethyl)-1,2,4-oxadiazol-3-yl)phenyl)thio)pyrrolidin-1-yl)methanone] | – | – | > 70% | – | –
26 | O=C(c1ccccc1)N1CC[C@@H](Sc2ccc(-c3noc(C(F)(F)F)n3)cc2)C1 [Compound 177, (R)-phenyl(3-((4-(5-(trifluoromethyl)-1,2,4-oxadiazol-3-yl)phenyl)thio)pyrrolidin-1-yl)methanone] | – | – | > 70% | – | –
27 | O=C(c1ccncc1)N1CCC(Oc2ccc(-c3noc(C(F)(F)F)n3)cc2)CC1 [Compound 179, pyridin-4-yl(4-(4-(5-(trifluoromethyl)-1,2,4-oxadiazol-3-yl)phenoxy)piperidin-1-yl)methanone] | – | – | > 70% | – | –
28 | COc1cccc(S(=O)(=O)N2CC(N(C)c3ccc(-c4noc(C(F)(F)F)n4)cc3)C2)c1 [Compound 198, 1-((3-methoxyphenyl)sulfonyl)-N-methyl-N-(4-(5-(trifluoromethyl)-1,2,4-oxadiazol-3-yl)phenyl)azetidin-3-amine] | – | – | > 70% | – | –
29 | O=C(c1cscn1)N1CC[C@H](Oc2ccc(-c3noc(C(F)(F)F)n3)cn2)C1 [Compound 200, (S)-thiazol-4-yl(3-((5-(5-(trifluoromethyl)-1,2,4-oxadiazol-3-yl)pyridin-2-yl)oxy)pyrrolidin-1-yl)methanone] | > 70% | – | > 70% | – | > 70%
